In patent US10538545B2 (priority 2017, dated 2020):

How the values were obtained:
metmyoglobin (metMb) = target: T1, metmyoglobin (metMb) (Equus caballus, UniProt P68082); assay: Reaction of DNIC with metmyoglobin (nitroxyl transfer, UV-vis); format: biochemical; conditions: 10 μM DNIC + 10 μM metMb, 25 mM phosphate buffer pH 7.4
T1 construct: purchased TCl
Method: A typical procedure for nitroxyl-transfer reaction of DNIC-2 and metmyoglobin was described below using DNIC-2a as an example, whereas reaction of DNIC-2b/DNIC-2d and metMb follows the same procedure. 10 μM of metMb in 3.3 mL of 25 mM phosphate buffer (pH 7.4) was loaded in a 4-mL quartz cuvette and sealed with rubber septum under anaerobic N2 atmosphere. 10 μM of DNIC-2a (13.0 μL of 2.5 mM stock solution of DNIC-2a in THF) was added into this aqueous solution, which is thermostated at 25° C. UV-vis spectra of this reaction solution were measured after this reaction solution was incubated for 10 minutes.
A typical procedure for reaction of DNIC-1 and metmyoglobin was described below. To a 4-mL quartz cuvette containing 10 μM of metMb in 3.3 mL of 25 mM phosphate buffer (pH 7.4), 10 μM of DNIC-1, derived from 13.0 μL of 2.5 mM stock solution of DNIC-1 in THF was added via gas-tight syringe at room temperature. The reaction solution was incubated at ambient temperature for 8 hours. No change of UV-vis spectra for this reaction solution was observed.
In example 1, the reaction of a variety of DNICs with metmyoglobin was investigated so as to verify the universal role of bridging ligands, thiolate vs. pyrazolate, on dictating the NO^−-transfer reactivity.

[1] = system: soluble guanylate cyclase (sGC); design: species or system C. elegans; conditions: in vivo
[2] = system: Tg (kdr:EGFP) zebrafish embryos; conditions: in vivo
[3] = system: AB (wild type) zebrafish embryos; conditions: in vivo
WT-AB zebrafish embryos = conditions: in vivo

T1 sequence (P68082 2-154 limits assumed): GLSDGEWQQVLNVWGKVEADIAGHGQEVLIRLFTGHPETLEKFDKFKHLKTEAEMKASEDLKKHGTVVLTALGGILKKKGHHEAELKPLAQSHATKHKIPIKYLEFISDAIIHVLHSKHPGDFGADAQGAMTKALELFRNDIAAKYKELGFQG

| Compound | nitroxyl-transfer reactivity toward metmyoglobin (formation of MbNO, shift of UV-vis bands) (metmyoglobin (metMb)) | increase of the GFP fluorescence signal in CX3553 worms [1] | Vessel Diameter (dorsal aorta diameter) [2] [μm] | Cardiac Output [3] [nL/min] | Fractional Shortening [3] | Heart Rate [3] [bpm] | Short Axis Diameter ED(Dd) [3] [μm] | Short Axis Diameter ES(Ds) [3] [μm] | Ventricular Volume ED [3] [nL] | Ventricular Volume ED-ES [3] [nL] | Ventricular Volume ES [3] [nL] | change of diameter of heart short-axis at end systole (ES) [3] | enhancement of cardiac output [3] | enhancement of fractional shortening [3] | Survival rate of zebrafish, Day 3 (WT-AB zebrafish embryos) [%] | Survival rate of zebrafish, Day 4 (WT-AB zebrafish embryos) [%] | Survival rate of zebrafish, Day 5 (WT-AB zebrafish embryos) [%] | acute toxicity on zebrafish embryo (WT-AB zebrafish embryos) |
| --- | --- | --- | --- | --- | --- | --- | --- | --- | --- | --- | --- | --- | --- | --- | --- | --- | --- | --- |
| [(NO)2Fe(μ-^NH2Pyr)2Fe(NO)2] [DNIC-2a] | nitroxyl transfer from DNIC-2a to metmyoglobin | about 5.7 fold | 25.6±0.6 | 48.4 ± 4.5 | 0.28 ± 0.02 | 145 ± 7 | 83.3 ± 2.5 | 59.6 ± 1.7 | 0.55 ± 0.03 | 0.34 ± 0.02 | 0.21 ± 0.02 | significant decrease | about 2 fold | about 2 fold | 100 ± 0.0 | 99.6 ± 0.7 | 98.4 ± 2.7 | no acute toxicity |
| CNC[C@H](O)c1ccc(O)c(O)c1 [Epinephrine, epinephrine, reference compound] | – | – | – | 37.4 ± 6.1 | 0.25 ± 0.04 | 144 ± 8 | 80.9 ± 1.4 | 61.0 ± 2.5 | 0.46 ± 0.05 | 0.26 ± 0.05 | 0.20 ± 0.03 | – | – | – | – | – | – | – |
